# According to patent publication US4759928A, “Antibiotic: Treponemycin” (Washington State University Research Foundation, priority 1986, dated 1988):
# Tests used:
# [1] = system: dopamine β-hydroxylase; details: cited from earlier work
# [2] = cited from earlier work
# [3] = system: Streptomyces sp. isolates 275 and 124; assay: Streptomycin susceptibility; format: cell-based, Streptomyces albovinaceous
# Description: Streptomyces sp. isolates 124 and 275 were characterized by the methods developed by collaborators of the International Streptomyces Project for the identification of Streptomyces species (1, 7, 8, 10-14). Identification was made by using Nonomura's classification key (7) and Bergey's Manual of Determinative Bacteriology (1). The color of mature aerial mycelia was observed on OMA, potato dextrose agar, and Pridham and Gottlieb's basal agar with glucose (8). The colony color on the reverse side of the plate was observed on potato dextrose agar, OMA, and tyrosine-casein-nitrate agar. Color standards and color nomenclature were used to describe the colony color. The production of melanoid pigments was examined on peptone-iron agar, tyrosine agar, and tryptone-yeast extract broth. Carbon utilization by the organism was studied on Pridham and Gottlieb's basal agar with various carbon sources added (8).
# [4] = system: Fusobacterium necrophorum; details: cited from earlier work
# [5] = system: Bacillus subtilis and Saccharomyces cerevisiae; assay: antimicrobial activity, paper disk agar diffusion bioassay; format: cell-based
smiles,measurement,setting,value
[C-]#[N+]C(C(=O)OCC(O)C(O)C(O)C(O)COC(=O)C([N+]#[C-])=C(C)C)=C(C)C (stereo not drawn) [A32390A],inhibitor of dopamine β-hydroxylase,[1],inhibitor
same,antimicrobial,[2],antimicrobial compound
[H]/N=C(/N)N[C@H]1[C@H](O)[C@@H](O)[C@H](O[C@@H]2O[C@@H](C)[C@](O)(C=O)[C@H]2O[C@@H]2O[C@@H](CO)[C@H](O)[C@@H](O)[C@@H]2NC)[C@@H](N/C(N)=N\[H])[C@@H]1O [Streptomycin],Streptomycin susceptibility,[3]; 10 μg/ml,not
same,Streptomycin susceptibility,[3]; 50 μg/ml,Inhibited
CC[C@H]1OC(=O)[C@H](C)[C@@H](O[C@H]2C[C@@](C)(OC)[C@@H](O)[C@H](C)O2)[C@H](C)[C@@H](O[C@@H]2O[C@H](C)C[C@H](N(C)C)[C@H]2O)[C@](C)(O)C[C@@H](C)C(=O)[C@H](C)[C@@H](O)[C@]1(C)O [erythromycin],resistance of Fusobacterium necrophorum,[4],high levels of resistance
C[C@@H]1C[C@H](C)C[C@H](C)[C@@H](O)CC(=O)O[C@H]([C@@H]2CCC[C@H]2C(=O)O)C/C=C/C=C(/CN)[C@H](O)[C@@H](C)C1 [primary amine],antimicrobial activity,[5],no antimicrobial activity
